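Dose response: 5 concentrations. Exposure: 48 h. Format: 96-well plates. Endpoint: linear interpolation; highest concentration if not reached. Definition used: TGI = concentration required for complete inhibition of growth.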
Key:
Assay in all cases: growth of human tumour cells (NCI), 48 h
OVCAR-3 ovarian = test system: OVCAR-3 ovarian
MDA-MB-435 = test system: MDA-MB-435
A549 NSCLC = test system: A549 NSCLC
OVCAR-5 ovarian = test system: OVCAR-5 ovarian
ACHN renal = test system: ACHN renal
SK-OV-3 ovarian = test system: SK-OV-3 ovarian
NCI-H226 lung = test system: NCI-H226 lung
K-562 leukemia = test system: K-562 leukemia
OVCAR-4 ovarian = test system: OVCAR-4 ovarian
UO-31 renal = test system: UO-31 renal
HCT-116 colon = test system: HCT-116 colon
SF-295 CNS = test system: SF-295 CNS
U251 CNS = test system: U251 CNS
IGROV1 ovarian = test system: IGROV1 ovarian
OVCAR-8 ovarian = test system: OVCAR-8 ovarian
HL-60(TB) leukemia = test system: HL-60(TB) leukemia
MOLT-4 leukemia = test system: MOLT-4 leukemia
NCI-H522 lung = test system: NCI-H522 lung
MALME-3M melanoma = test system: MALME-3M melanoma
MDA-N = test system: MDA-N

| Compound | TGI (OVCAR-3 ovarian) [µM] | TGI (MDA-MB-435) [µM] | TGI (A549 NSCLC) [µM] | TGI (OVCAR-5 ovarian) [µM] | TGI (ACHN renal) [µM] | TGI (SK-OV-3 ovarian) [µM] | TGI (NCI-H226 lung) [µM] | TGI (K-562 leukemia) [µM] | TGI (OVCAR-4 ovarian) [µM] | TGI (UO-31 renal) [µM] | TGI (HCT-116 colon) [µM] | TGI (SF-295 CNS) [µM] | TGI (U251 CNS) [µM] | TGI (IGROV1 ovarian) [µM] | TGI (OVCAR-8 ovarian) [µM] | TGI (HL-60(TB) leukemia) [µM] | TGI (MOLT-4 leukemia) [µM] | TGI (NCI-H522 lung) [µM] | TGI (MALME-3M melanoma) [µM] | TGI (MDA-N) [µM] |
| --- | --- | --- | --- | --- | --- | --- | --- | --- | --- | --- | --- | --- | --- | --- | --- | --- | --- | --- | --- | --- |
| O=c1c2ccccc2ncn1COCc1ccccc1 | > 100 | > 100 | > 100 | > 100 | > 100 | > 100 | > 100 | > 100 | > 100 | > 100 | > 100 | > 100 | > 100 | > 100 | > 100 | > 100 | > 100 |  |  |  |
| Cc1ccccc1SC(/C=C/NNC1=NC(c2ccccc2)C(c2ccccc2)=NN1)c1ccccc1 (configuration not stated) | 31.7 |  | 46.7 | > 100 | 42.8 | 45.3 | 52 | > 100 | 9.16 | 48.6 |  | 57.7 | 64.7 | 80.2 | 40 |  | > 100 | > 100 | 75.1 |  |
| CSc1c(C(N)=S)c(N)nn1-c1ccccc1 | > 100 | > 100 | > 100 | > 100 |  | > 100 | > 100 | > 100 | > 100 | > 100 | > 100 |  | > 100 | > 100 | > 100 | > 100 | > 100 | > 100 | > 100 |  |
| Oc1ccc(O)c(-n2cccn2)c1 |  |  | > 100 | > 100 | > 100 | > 100 |  | 64.3 | > 100 | > 100 |  | > 100 | > 100 | > 100 | > 100 | 44.8 | 59.5 | 34.7 | > 100 |  |
| OC(c1cc2ccccc2[nH]1)C(O)(c1cc2ccccc2[nH]1)c1cc2ccccc2[nH]1 (configuration not stated) | 9.13 |  | 63 | 102 | 50.1 | 79.1 | 40.4 | > 245 |  |  | 27.3 | 31.3 | 78.4 | 47.9 | 75 | 127 | > 245 | 37.5 | 59.7 |  |
| CC(C)(C)OC(=O)NC(Cc1ccccc1)C(=S)N1CCCC1 (configuration not stated) | > 100 |  | > 100 | > 100 | > 100 | > 100 | > 100 | > 100 | > 100 | > 100 | > 100 | > 100 | > 100 | > 100 | > 100 | > 100 | > 100 | 96.9 | > 100 |  |
| O=C(/C=C/c1ccc(-c2ccccc2)cc1)c1ccccc1 |  |  | 56.3 | 41 | > 100 | 58.5 | 49.3 | > 100 | > 100 | > 100 | 30.2 | > 100 | 58.5 | 69.1 | 33.8 | > 100 | > 100 | 35.4 | > 100 |  |
| COC(=O)C(/C(=N/N)C(=O)Nc1cc(Cl)ccc1Cl)c1nc2ccc([N+](=O)[O-])cc2[nH]c1=O (configuration not stated) | > 100 |  | > 100 | > 100 | > 100 | > 100 | > 100 | > 100 | > 100 | > 100 | > 100 | > 100 | > 100 | > 100 | > 100 | > 100 | > 100 | > 100 | > 100 |  |
| O=C(NC1CCCCC1)NC12CC3CC(CC(F)(C3)C1)C2 | > 100 |  | > 100 | > 100 | > 100 | > 100 |  | > 100 |  | > 100 | > 100 |  | > 100 | > 100 | > 100 | > 100 | > 100 | > 100 | > 100 |  |
| CC1=C(C(=O)O)N2C(=O)[C@@H](NC(=O)C(c3ccccc3)N3CSC(=S)N(C(C)C)C3)C2SC1 (some centres not stated) | > 100 |  |  | > 100 | > 100 | > 100 |  | > 100 | > 100 | > 100 | > 100 | > 100 | > 100 | > 100 | > 100 | > 100 | > 100 | 66.6 | > 100 |  |
| COc1ccc(C2=NN(C(C)=O)c3nc4ccccc4nc3O2)cc1 | > 100 |  | > 100 |  | > 100 |  |  | > 100 | 98.4 | 90.4 | > 100 | > 100 | 61.8 | 27.4 | > 100 | > 100 | > 100 | 63.8 | > 100 |  |
| Cc1ccc([N+](=O)[O-])cc1NC(=O)C(=O)Cc1nc2ccc(C(=O)c3ccccc3)cc2[nH]c1=O | > 100 |  | > 100 |  | > 100 | > 100 | > 100 |  | > 100 | > 100 | > 100 | > 100 |  | > 100 | > 100 | > 100 | > 100 | > 100 | > 100 |  |
| CCCCN(C)CC(C(C)=O)C(c1ccccc1)c1c(O)c2ccccc2oc1=O (configuration not stated) | > 100 |  | > 100 | > 100 | > 100 | > 100 | > 100 | > 100 | > 100 | > 100 | > 100 | > 100 | > 100 | > 100 | > 100 | > 100 | > 100 | > 100 | > 100 |  |
| CC1CN=C(N(C(=O)Nc2ccc(Cl)cc2)c2cccc(Cl)c2)S1 (configuration not stated) | > 100 |  | > 100 | > 100 | > 100 | > 100 |  |  | > 100 | > 100 | > 100 | > 100 | > 100 | > 100 | > 100 | > 100 |  |  | > 100 | > 100 |
| CC(=O)NNc1ncc(C(=O)/C=C/c2ccccc2C)s1 | > 100 |  | > 100 | > 100 | > 100 | > 100 |  | > 100 |  | > 100 |  | > 100 | > 100 | > 100 | > 100 | > 100 | > 100 | > 100 | > 100 |  |
| CC(C)(Oc1ccc2c(=O)cc(-c3ccc(Cl)cc3)oc2c1)C(=O)Nc1c(Cl)cccc1Cl | > 100 |  | > 100 | > 100 |  | > 100 |  | > 100 |  | > 100 | > 100 | > 100 | > 100 | > 100 | > 100 | > 100 | > 100 | > 100 | > 100 |  |
| CO/S(=N/S(=O)(=O)c1ccccc1)c1ccccc1[N+](=O)[O-] (configuration not stated) | > 100 |  | > 100 | > 100 | > 100 | > 100 | > 100 | > 100 | > 100 | > 100 |  | > 100 | > 100 | > 100 | > 100 |  | > 100 | > 100 | > 100 |  |
| CS(=O)(=O)c1ccc(C(=O)O[C@@H]2C(=O)N3CC[C@H]4OC(O)[C@@H]2[C@H]43)cc1 (some centres not stated) | > 100 | > 100 | > 100 | > 100 | > 100 | > 100 | > 100 | > 100 | > 100 | > 100 | > 100 | > 100 | > 100 |  | > 100 |  | > 100 |  |  |  |
| C=C(C)[C@@]12C[C@H](OC(=O)[C@H](O)[C@@H](NC(=O)c3ccccc3)c3ccccc3)C(C)=C1[C@@H](OC(C)=O)C(=O)[C@@]1(C)C([C@@H]2OC(=O)c2cc(F)cc(F)c2)C2(OC(C)=O)CO[C@@H]2C[C@@H]1O (some centres not stated) | 1.92 | 0.0818 | > 6.61 | 1.51 | > 9.36 | > 10 | > 10 | > 6.66 | > 10 | > 10 | 1.22 | > 10 | > 5.16 | > 10 | > 4.03 | 0.224 | 1.24 |  | > 8.81 |  |
| Cc1cc(OP2(=O)NCc3ccncc3O2)ccc1Cl (configuration not stated) | > 100 | > 100 | > 100 | > 100 | > 100 |  | > 100 | > 100 | > 100 | > 100 | > 100 | > 100 | > 100 | > 100 | > 100 |  | > 100 |  |  | > 100 |
| O=CC1=CCCN(CCc2c[nH]c3ccccc23)C1 | 95.9 |  | > 393 | 126 | 125 | 224 | 102 | > 393 |  |  | 80.4 | 112 | 105 | 176 | 206 | 91.3 | > 393 | 139 | 122 |  |
| CSc1nc2nccnc2c(=O)[nH]1 |  |  | > 100 | > 100 | > 100 | > 100 | > 100 | > 100 | > 100 | > 100 | > 100 | > 100 | > 100 | > 100 | > 100 | > 100 | > 100 | > 100 | > 100 |  |
| CC1=C(O)C(=O)C2C(=O)C1C(C)C2c1ccccc1 (configuration not stated) | > 100 |  | > 100 | > 100 | > 100 | > 100 | > 100 | > 100 | > 100 | > 100 |  | > 100 | > 100 | > 100 | > 100 |  | > 100 | > 100 | > 100 |  |
| O=C1C=CC(=O)c2c(O)c(NCCN3CCOCC3)c(Cl)c(O)c21 | 7.26 | 4.12 | 4.96 |  | 7.51 | > 10 | > 10 | 7.59 | 3.22 | 3.96 | 3.17 | 3.41 | 6.97 | 3.72 | > 10 |  | 3.89 |  | 3.31 | 5.33 |
| [N-]=[N+]=C1C(=O)C2CC3CC1CC2C3 (configuration not stated) | > 100 |  | > 100 | > 100 | > 100 | > 100 | > 100 | > 100 | > 100 | > 100 | > 100 | > 100 | > 100 | > 100 | > 100 | > 100 | > 100 | > 100 | > 100 |  |
| COc1nc2c(c(=O)[nH]1)N=C(c1ccccc1)CC(c1ccccc1)N2 (configuration not stated) | > 100 | > 100 | > 100 | > 100 | > 100 | > 100 | > 100 | 60.3 | 81.4 | > 100 | > 100 | > 100 | > 100 | > 100 | > 100 |  | 96.9 | > 100 | > 100 |  |
| CC(=O)OCCCCn1nncc1Cn1ccc(=O)n(Cc2cnnn2CCCCOC(C)=O)c1=O | > 100 | > 100 | > 100 | > 100 | > 100 | > 100 | > 100 |  | > 100 | > 100 | > 100 | > 100 | > 100 | > 100 | > 100 |  | > 100 |  | > 100 | > 100 |

From PubChem BioAssay (NCI)
